Values joined by “and” are separate entries in the source; they are usually repeats but may differ in a detail not shown here. Equal values may be shown once.
Key:
[1] = tested on: MCF-7 breast cancer cells; assay: Cell morphology by photomicrographs; assay type: cell-based; conditions: 1 μM, 24 h
Description: MCF-7 (ER+) and MDA-MB-231 (ER−) breast cancer cells were obtained from the American Type Culture Collection (Rockville, Md.). Cells were routinely cultured in 25 cm^2 culture flasks in Eagle's minimum essential medium (EMEM) with Hepes buffer (20 mM). This medium was supplemented with L-glutamine (2 mM), sodium hydrogen carbonate (10 mM), 1% non-essential amino acids and 5% (v/v) foetal calf serum (FCS). Before adding test compounds, cells were washed with phosphate-buffered saline (PBS) and treatments added in phenol-red free medium containing 2% stripped FCS and supplements. The effects of 2-MeOE1 or 2-MeOEMATE on the growth of MCF-7 cells was assessed using a Cell Titer 96 cell proliferation assay (Promega, Southampton, Hants, UK) according to the manufacturers' instructions. For this, cells (5000 per well) were cultured in medium containing phenol-red and 10% FCS and were exposed to a drug for 4 days before the assay was performed. For MDA-MB-231 cells, cell numbers were determined using a Coulter counter.
(§1) Photomicrographs of control and treated cells were taken under normal conditions of light and exposure using an Olympus SL35 Type 12 camera under an Olympus CK2 microscope (×100 magnification).

[2] = tested on: breast tumour-derived fibroblasts; assay: Morphology and cell number (Coulter counter) of fibroblasts; assay type: cell-based; conditions: 24 h
Description: For the culture of fibroblasts, resected breast tumour tissue was minced and incubated in EMEM for 18-24 h at 37° C. with collagenase (200 μg/ml). The dispersed cells were harvested by centrifugation and washed twice with medium to remove collagenase. Dispersed cells were seeded into culture flasks and grown to confluence before passaging on a weekly basis. For experimental purposes 12 well multi-well plates or 25 cm^2 flasks were seeded with fibroblasts and grown to 70-80% confluency. Cells were washed with PBS and exposed to drugs for 24 h before determining cell numbers using a Coulter counter.
as §1

[3] = tested on: MCF-7 cells; assay: Flow cytometry analysis of cell cycle distribution (propidium iodide); assay type: cell-based; conditions: 10 μM; for proportion of cells in the G1 phase: time-course study (untreated 66%)
Description: Cells were cultured in the presence of 2-MeOE1, 2-MeOEMATE or vehicle for up to 48 h. To examine the reversibility of the effects of 2-MeOEMATE on the cell cycle, cells were treated for 24 h with the drug after which cells were washed and cultured in fresh medium without drug for a further 24 h period.
To prepare cells for analysis of DNA content, cells were trypsinised (0.25% trypsin, 0.02% EDTA), washed with PBS and fixed with 70% ethanol. Cells were collected by centrifugation, re-suspended in PBS (1-2×10^6 cells/ml) and treated with RNase A (0.1 mg/ml) and stained with propidium iodide (0.05 mg/ml) for 30 min at room temperature. Cells were analysed with a flow cytometer (FACscan, Becton Dickinson Immunocytormetry System, Bedford Mass.).

[4] = tested on: MCF-7 cells; assay: TUNEL analysis of apoptosis; assay type: cell-based; conditions: 10 μM, 48 h
From the text: The ability of 2-MeOEMATE to induce apoptosis in MCF-7 cells was examined by TUNEL analysis using an in situ cell death detection kit (Boehringer Manheim UK Ltd., Lewes, East Sussex, UK). Cells were fixed and permeabilised according to the manufacturers' instructions. Stained apoptotic cells were quantitated by flow cytometry.

[5] = tested on: nitrosomethylurea-induced mammary tumours; assay: Growth of NMU-induced mammary tumours in intact rats; assay type: in vivo, rat
Description: The effect of 2-MeOEMATE on mammary tumour growth was examined in a preliminary study using Ludwig rats (Harlan Olac, Bicester, UK) in which tumours were induced by inoculation of NMU. Tumour development was monitored regularly and when 0.5-1.0 cm^3 in volume, animals received vehicle (propylene glycol, 200 μl/day, p.o.), 2-MeOEMATE (20 mg/kg/day, p.o.) or 2-MeOE1 (20 mg/kg/day, p.o.) daily for an 11 day period. Tumour length and width was measured with callipers and tumour volumes calculated as described (21).

[6] = tested on: MCF-7 breast cancer cells; assay: Irreversible inhibition of cell growth, Stage 1 and Stage 2 (Coulter cell counter); assay type: cell-based; conditions: for cell numbers, % of the control cell number, Stage 1: 6 days
Description: MCF-7 breast cancer cells were seeded into multi-well culture plates at a density of 10^5 cells/well. Cells were allowed to attach and grown until about 30% confluent when they were treated as follows:
Cells were grown for 6 days in growth medium containing the above drugs with changes of medium/drug every 3 days. At the end of this period cell numbers were counted using a Coulter cell counter.
After treatment of cells for a 6-day period with the above drugs cells were re-seeded at a density of 10^4 Cells/well. No further treatments were added. Cells were allowed to continue to grow for a further 6 days in the presence of growth medium. At the end of this period cell numbers were again counted.
Stages 1 and 2 described above were repeated using Control—no treatment, EMATE 20 μM and EMATE 5 μM.
MCF-7 breast cancer cells were seeded into multi-well culture plates at a density of 10^5 cells/well. Cells were allowed to attach and grown until about 30% confluent when they were treated as follows: • Control—no treatment • Compound of Interest (COI) 20 μM
Cells were grown for 6 days in growth medium containing the COI with changes of medium/COI every 3 days. At the end of this period cell numbers were counted using a Coulter cell counter.
After treatment of cells for a 6-day period with the COI cells were re-seeded at a density of 10^4 cells/well. No further treatments were added. Cells were allowed to continue to grow for a further 6 days in the presence of growth medium. At the end of this period cell numbers were again counted.

[7] = tested on: MCF7 cells; assay: Proportion of cells in mitosis (PI stained cytospins, confocal microscopy); assay type: cell-based; conditions: 24 hours (control 4%)
Description: To determine the proportion of cells in mitosis, drug treated cells were collected by trypsinisation and cytospins prepared. Cells were fixed in ice cold methanol for 5 minutes, air dried and DNA was stained using propidium iodide (PI) (0.1 mg/ml in phosphate buffered saline (PBS) containing 10% (v/v) newborn calf serum and 0.05% (w/v) sodium azide). Cells were analysed by confocal microscopy using a Zeiss Axiovert 100 M microscope equipped with the LSM 510 confocal system (Zeiss, Jena, Germany).
Effect of estrone derivatives on mitosis in MCF7 cells. MCF7 cells were treated with the indicated compounds for 24 hours. Cells were recovered by trypsinisation and cytospins prepared. DNA was stained with PI and cells in mitosis (i.e., with condensed chromosomes) determined as a percentage of total cells.

[8] = (18, 19); cited from earlier work

Structure (SMILES): COc1cc2c(cc1OS(N)(=O)=O)CCC1C2CC[C@]2(C)C(=O)CCC12 (stereo partly shown) [2-MeOEMATE, 2-methoxyoestrone-3-O-sulphamate]
- effect on cell morphology [1]: significant increase in the number of rounded and detached cells
- effect on fibroblast morphology ([2]; 1 μM): little effect on cell morphology
- effect on fibroblast morphology ([2]; 5 μM): rounding of a significant proportion of fibroblasts
- effect on the number of fibroblasts [2]: did not reduce the number of fibroblasts
- time by which accumulation of cells in the G2/M phase was apparent [3]: ≤ 12 h
- proportion of cells in the G1 phase ([3]; 12 h exposure): 50%
- cell cycle distribution, G1 ([3]; 24 h): 10
- cell cycle distribution, G2/M ([3]; 24 h): 60
- cell cycle distribution, S ([3]; 24 h): 8
- cell cycle distribution, Sub-G1 ([3]; 24 h): 22
- cell cycle distribution, G1 ([3]; 24 h + 24 h drug-free culture): 8
- cell cycle distribution, G2/M ([3]; 24 h + 24 h drug-free culture): 57
- cell cycle distribution, S ([3]; 24 h + 24 h drug-free culture): 7
- cell cycle distribution, Sub-G1 ([3]; 24 h + 24 h drug-free culture): 27
- proportion of cells in the G1 phase ([3]; 24 h exposure): 23%
- cell cycle distribution, G1 ([3]; 48 h): 14
- cell cycle distribution, G2/M ([3]; 48 h): 58
- cell cycle distribution, S ([3]; 48 h): 9
- cell cycle distribution, Sub-G1 ([3]; 48 h): 18
- fluorescently labelled (TUNEL positive) cells as proportion of the cell population [4]: approximately 10%
- reduction in tumour volume ([5]; 20 mg/kg/day, p.o., 11 days, individual animals): almost complete regression of ⅔ tumours and 8% and tumours regressed rapidly and were barely palpable and regressed almost completely
- regrowth of regressed tumours ([5]; monitored for a further 33 days after 11-day dosing): no regrowth of tumours was detected
- cell numbers, % of the control cell number, Stage 1 ([6]; 1 m (so in the source)): 52%
- cell numbers, % of the control cell number, Stage 1 ([6]; 5 μm): 43%
- effect on cell numbers, Stage 2 (irreversible growth inhibition) ([6]; re-seeded after 6-day treatment, further 6 days without drug): severely growth restricted
- mitotic cells, percentage of total cells ([7]; 500 nM): 26%
- mitotic cells, percentage of total cells ([7]; 5 μM): 38%
- oestrogenicity [8]: devoid of oestrogenicity

Reference: patent publication US7078395B1, “Methods for treating or preventing cancer by preventing, inhibiting or arresting cell cycling” (priority 1999, dated 2006)
